Target: MALT1 (Homo sapiens (Human), UniProt Q9UDY8)
Assay: MALT1 enzymatic activity inhibition (fluorescence, Ac-LRSR-AMC substrate)
Assay type: biochemical
Details: recombinant MALT1 1.5 ng/μl, Ac-LRSR-AMC 1 μM
Description: Compound activity was determined using recombinant MALT1 protein (Creative Biomart, Cat #MALT1-28H) and Ac-LRSR-AMC Substrate in an in vitro enzymatic reaction. The enzymatic assay used to determine activity was a Fluorescence assay using a Microplate Reader ClarioStar Plus. The enzymatic reaction was carried out in 1× Assay Buffer (50 mM HEPES pH 7.2-7.4, 100 mM NaCl, 900 mM Sodium citrate, 10 mM DTT). The compounds were dispensed on a 384-well Diamond Well Plate (Axygen, Cat #P-384-120SQ-C—S) using the Biomek FX liquid handling system at 100× solutions of compounds in DMSO. 2.5×MALT1 mix (final concentration 1.5 ng/μl of MALT1) was prepared in 1× Assay Buffer and 8 μl of mixture per well were added into 384w white Reaction Plates with NBS (Corning, Cat #4513). 8 μl of 1× Assay Buffer were used for negative control. Plates were centrifuged for 1 min at 200 g. Next, the compounds were added to Reaction plates using Biomek station via following steps: 1 μl of 100× compounds (in DMSO) was mixed thoroughly with 19 μl of 1× Assay Buffer, then 4 μl of this mixture were added to Reaction plates with 8 μl of MALT1 mix. Plates were centrifuged for 1 min at 200 g and incubated for 10 minutes at rt. Next, 2.5× Ac-LRSR-AMC mix (final concentration 1 μM of Ac-LRSR-AMC) was prepared in 1× Assay Buffer and 8 μl of mixture per well were added to Reaction Plates using Biomek station. Plates were centrifuged for 1 min at 200 g, then the fluorescence was measured immediately using Microplate Reader. Plates were incubated for 30 minutes at 37° C., then for 30 minutes at rt. The fluorescence was measured after the whole incubation using Microplate Reader. The reaction signal was calculated as the subtraction of the first data set values from the second. The % inhibition was then used to calculate the IC50 values. The results of this assay are shown in the Table A. The values of EC50 shown as a letters A-E, where: A≤0.2 μM; 0.2 μM<B≤0.5 μM; 0.5 μM<C≤1 μM; 1<D≤5 μM; E >5.

Sequence of MALT1 (Q9UDY8 whole entry): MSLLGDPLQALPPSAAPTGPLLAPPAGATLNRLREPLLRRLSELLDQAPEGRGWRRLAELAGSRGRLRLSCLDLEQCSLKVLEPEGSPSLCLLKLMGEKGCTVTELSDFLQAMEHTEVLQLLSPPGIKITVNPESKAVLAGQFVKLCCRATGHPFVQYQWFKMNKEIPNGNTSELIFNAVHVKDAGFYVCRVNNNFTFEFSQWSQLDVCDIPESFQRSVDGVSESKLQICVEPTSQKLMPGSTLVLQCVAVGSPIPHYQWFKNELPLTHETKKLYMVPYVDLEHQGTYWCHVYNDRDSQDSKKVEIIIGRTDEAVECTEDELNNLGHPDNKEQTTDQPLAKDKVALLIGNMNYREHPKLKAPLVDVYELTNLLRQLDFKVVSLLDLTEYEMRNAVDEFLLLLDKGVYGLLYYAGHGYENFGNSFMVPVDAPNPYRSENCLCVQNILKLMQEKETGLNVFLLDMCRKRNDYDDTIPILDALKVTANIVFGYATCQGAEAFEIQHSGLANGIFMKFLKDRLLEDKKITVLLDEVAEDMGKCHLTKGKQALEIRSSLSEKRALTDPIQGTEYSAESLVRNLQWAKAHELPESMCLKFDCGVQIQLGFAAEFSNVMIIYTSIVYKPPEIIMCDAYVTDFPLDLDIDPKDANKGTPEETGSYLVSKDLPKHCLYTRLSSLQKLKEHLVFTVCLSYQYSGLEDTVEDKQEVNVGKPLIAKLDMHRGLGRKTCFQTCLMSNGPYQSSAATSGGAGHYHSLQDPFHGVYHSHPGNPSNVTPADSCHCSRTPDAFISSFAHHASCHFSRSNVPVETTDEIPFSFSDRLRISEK

| EC50 [µM] | Compound |
| --- | --- |
| > 5 | Cc1cc(NC(=O)Nc2cnc3ccnn3c2C2CCCO2)cnc1N1CCN(C(=O)CCOCCOCCN2CCN(c3ccc4c(c3)CN(C3CCC(=O)NC3=O)C4=O)CC2)CC1 (stereo not drawn) [Compound 31, 1-[6-[4-[3-[2-[2-[4-[2-(2,6-dioxo-3-piperidyl)-1-oxo-isoindolin-5-yl]piperazin-1-yl]ethoxy]ethoxy]propanoyl]piperazin-1-yl]-5-methyl-3-pyridyl]-3-(7-tetrahydrofuran-2-ylpyrazolo[1,5-a]pyrimidin-6-yl)urea] |
| 1 to 5 | O=C(CCOCCOCCN1CCN(c2ccc3c(c2)CN(C2CCC(=O)NC2=O)C3=O)CC1)NCCOc1ncc(Cl)cc1NC(=O)Nc1cnc2ccnn2c1C1CCCO1 (stereo not drawn) [Compound 32, N-[2-[[5-chloro-3-[(7-tetrahydrofuran-2-ylpyrazolo[1,5-a]pyrimidin-6-yl)carbamoylamino]-2-pyridyl]oxy]ethyl]-3-[2-[2-[4-[2-(2,6-dioxo-3-piperidyl)-1-oxo-isoindolin-5-yl]piperazin-1-yl]ethoxy]ethoxy]propanamide] |
| 1 to 5 | Cc1cc(NC(=O)Nc2cnc3ccnn3c2C2CCCO2)cnc1-n1cc(C(=O)NCCOCCOCCC(=O)N2CCN(c3ccc4c(c3)CN(C3CCC(=O)NC3=O)C4=O)CC2)cn1 (stereo not drawn) [Compound 33, N-[2-[2-[3-[4-[2-(2,6-dioxo-3-piperidyl)-1-oxo-isoindolin-5-yl]piperazin-1-yl]-3-oxo-propoxy]ethoxy]ethyl]-1-[3-methyl-5-[(7-tetrahydrofuran-2-ylpyrazolo[1,5-a]pyrimidin-6-yl)carbamoylamino]-2-pyridyl]pyrazole-4-carboxamide] |
| > 5 | Cc1cc(NC(=O)Nc2cnc3ccnn3c2C2CCCO2)cnc1N1CCN(C(=O)CCOCCN2CCN(c3ccc4c(c3)CN(C3CCC(=O)NC3=O)C4=O)CC2)CC1 (stereo not drawn) [Compound 35, 1-[6-[4-[3-[2-[4-[2-(2,6-dioxo-3-piperidyl)-1-oxo-isoindolin-5-yl]piperazin-1-yl]ethoxy]propanoyl]piperazin-1-yl]-5-methyl-3-pyridyl]-3-(7-tetrahydrofuran-2-ylpyrazolo[1,5-a]pyrimidin-6-yl)urea] |
| 0.5 to 1 | O=C(CCOCCN1CCN(c2ccc3c(c2)CN(C2CCC(=O)NC2=O)C3=O)CC1)NCCOc1ncc(Cl)cc1NC(=O)Nc1cnc2ccnn2c1C1CCCO1 (stereo not drawn) [Compound 36, N-[2-[[5-chloro-3-[(7-tetrahydrofuran-2-ylpyrazolo[1,5-a]pyrimidin-6-yl)carbamoylamino]-2-pyridyl]oxy]ethyl]-3-[2-[4-[2-(2,6-dioxo-3-piperidyl)-1-oxo-isoindolin-5-yl]piperazin-1-yl]ethoxy]propanamide] |
| 0.5 to 1 | O=C(CCOCCN1CCN(c2ccc3c(c2)CN(C2CCC(=O)NC2=O)C3=O)CC1)NCCOc1ncc(Cl)cc1NC(=O)Nc1cnc2ccnn2c1C1CCOC1 (stereo not drawn) [Compound 39, N-[2-[[5-chloro-3-[(7-tetrahydrofuran-3-ylpyrazolo[1,5-a]pyrimidin-6-yl)carbamoylamino]-2-pyridyl]oxy]ethyl]-3-[2-[4-[2-(2,6-dioxo-3-piperidyl)-1-oxo-isoindolin-5-yl]piperazin-1-yl]ethoxy]propanamide] |
| 0.5 to 1 | O=C(CCOCCOCCN1CCN(c2ccc3c(c2)CN(C2CCC(=O)NC2=O)C3=O)CC1)NCCOc1ncc(Cl)cc1NC(=O)Nc1cnc2ccnn2c1C1CCOC1 (stereo not drawn) [Compound 40, N-[2-[[5-chloro-3-[(7-tetrahydrofuran-3-ylpyrazolo[1,5-a]pyrimidin-6-yl)carbamoylamino]-2-pyridyl]oxy]ethyl]-3-[2-[2-[4-[2-(2,6-dioxo-3-piperidyl)-1-oxo-isoindolin-5-yl]piperazin-1-yl]ethoxy]ethoxy]propanamide] |
| 0.5 to 1 | O=C(CCOCCOCCN1CCN(c2ccc3c(c2)CN(C2CCC(=O)NC2=O)C3=O)CC1)NCCOc1ncc(Cl)cc1NC(=O)Nc1cnc2ccnn2c1C1CCOCC1 (stereo not drawn) [Compound 41, N-[2-[[5-chloro-3-[(7-tetrahydropyran-4-ylpyrazolo[1,5-a]pyrimidin-6-yl)carbamoylamino]-2-pyridyl]oxy]ethyl]-3-[2-[2-[4-[2-(2,6-dioxo-3-piperidyl)-1-oxo-isoindolin-5-yl]piperazin-1-yl]ethoxy]ethoxy]propanamide] |
| 0.5 to 1 | O=C(CCOCCN1CCN(c2ccc3c(c2)CN(C2CCC(=O)NC2=O)C3=O)CC1)NCCOc1ncc(Cl)cc1NC(=O)Nc1cnc2ccnn2c1C1CCOCC1 (stereo not drawn) [Compound 42, N-[2-[[5-chloro-3-[(7-tetrahydropyran-4-ylpyrazolo[1,5-a]pyrimidin-6-yl)carbamoylamino]-2-pyridyl]oxy]ethyl]-3-[2-[4-[2-(2,6-dioxo-3-piperidyl)-1-oxo-isoindolin-5-yl]piperazin-1-yl]ethoxy]propanamide] |
| 1 to 5 | O=C(CCOCCN1CCN(c2ccc3c(c2)CN(C2CCC(=O)NC2=O)C3=O)CC1)NCCOc1ccc(Cl)cc1NC(=O)Nc1cnc2ccnn2c1C1CCCC1 (stereo not drawn) [Compound 43, N-[2-[4-chloro-2-[(7-cyclopentylpyrazolo[1,5-a]pyrimidin-6-yl)carbamoylamino]phenoxy]ethyl]-3-[2-[4-[2-(2,6-dioxo-3-piperidyl)-1-oxo-isoindolin-5-yl]piperazin-1-yl]ethoxy]propanamide] |
| 1 to 5 | O=C(CCOCCN1CCN(c2ccc3c(c2)CN(C2CCC(=O)NC2=O)C3=O)CC1)NCCOc1ncc(Cl)cc1NC(=O)Nc1cnc2ccnn2c1C1CCCCC1 (stereo not drawn) [Compound 44] |
| > 5 | O=C(CCOCCN1CCN(c2ccc3c(c2)CN(C2CCC(=O)NC2=O)C3=O)CC1)NCCNC(=O)C1CCCN1C(=O)Nc1cnc2ccnn2c1C1CCCC1 (stereo not drawn) [Compound 45, N1-(7-cyclopentylpyrazolo[1,5-a]pyrimidin-6-yl)-N2-[2-[3-[2-[4-[2-(2,6-dioxo-3-piperidyl)-1-oxo-isoindolin-5-yl]piperazin-1-yl]ethoxy]propanoylamino]ethyl]pyrrolidine-1,2-dicarboxamide] |
| > 5 | O=C(CCOCCN1CCN(c2ccc3c(c2)CN(C2CCC(=O)NC2=O)C3=O)CC1)NCCNC(=O)[C@@H]1C[C@@H](O)CN1C(=O)Nc1cnc2ccnn2c1C1CCCC1 (stereo partly drawn) [Compound 46, (2S,4R)-N1-(7-cyclopentylpyrazolo[1,5-a]pyrimidin-6-yl)-N2-[2-[3-[2-[4-[2-(2,6-dioxo-3-piperidyl)-1-oxo-isoindolin-5-yl]piperazin-1-yl]ethoxy]propanoylamino]ethyl]-4-hydroxy-pyrrolidine-1,2-dicarboxamide] |
| > 5 | O=C(CCOCCOCCN1CCN(c2ccc3c(c2)CN(C2CCC(=O)NC2=O)C3=O)CC1)NCCNC(=O)[C@@H]1C[C@@H](O)CN1C(=O)Nc1cnc2ccnn2c1C1CCCC1 (stereo partly drawn) [Compound 47, (2S,4R)-N1-(7-cyclopentylpyrazolo[1,5-a]pyrimidin-6-yl)-N2-[2-[3-[2-[2-[4-[2-(2,6-dioxo-3-piperidyl)-1-oxo-isoindolin-5-yl]piperazin-1-yl]ethoxy]ethoxy]propanoylamino]ethyl]-4-hydroxy-pyrrolidine-1,2-dicarboxamide] |
| > 5 | O=C(CCOCCOCCN1CCN(c2ccc3c(c2)CN(C2CCC(=O)NC2=O)C3=O)CC1)NCCNC(=O)C1CCCN1C(=O)Nc1cnc2ccnn2c1C1CCCC1 (stereo not drawn) [Compound 48, N1-(7-cyclopentylpyrazolo[1,5-a]pyrimidin-6-yl)-N2-[2-[3-[2-[2-[4-[2-(2,6-dioxo-3-piperidyl)-1-oxo-isoindolin-5-yl]piperazin-1-yl]ethoxy]ethoxy]propanoylamino]ethyl]pyrrolidine-1,2-dicarboxamide] |
| 1 to 5 | O=C(CCOCCOCCN1CCN(c2ccc3c(c2)CN(C2CCC(=O)NC2=O)C3=O)CC1)NCCOc1ccc(Cl)cc1NC(=O)Nc1cnc2ccnn2c1C1CCCC1 (stereo not drawn) [Compound 49, N-[2-[4-chloro-2-[(7-cyclopentylpyrazolo[1,5-a]pyrimidin-6-yl)carbamoylamino]phenoxy]ethyl]-3-[2-[2-[4-[2-(2,6-dioxo-3-piperidyl)-1-oxo-isoindolin-5-yl]piperazin-1-yl]ethoxy]ethoxy]propanamide] |
| 1 to 5 | O=C(CCOCCN1CCN(c2ccc3c(c2)CN(C2CCC(=O)NC2=O)C3=O)CC1)NCCOc1ncc(Cl)cc1NC(=O)Nc1cn2ccnc2nc1C1CCCCC1 (stereo not drawn) [Compound 50, N-[2-[[5-chloro-3-[(7-cyclohexylimidazo[1,2-a]pyrimidin-6-yl)carbamoylamino]-2-pyridyl]oxy]ethyl]-3-[2-[4-[2-(2,6-dioxo-3-piperidyl)-1-oxo-isoindolin-5-yl]piperazin-1-yl]ethoxy]propanamide] |
| > 5 | O=C(CCOCCN1CCN(c2ccc3c(c2)CN(C2CCC(=O)NC2=O)C3=O)CC1)NCCOc1ncc(Cl)cc1NC(=O)Nc1cnc2ncnn2c1C1CCCCC1 (stereo not drawn) [Compound 51, N-[2-[[5-chloro-3-[(7-cyclohexyl-[1,2,4]triazolo[1,5-a]pyrimidin-6-yl)carbamoylamino]-2-pyridyl]oxy]ethyl]-3-[2-[4-[2-(2,6-dioxo-3-piperidyl)-1-oxo-isoindolin-5-yl]piperazin-1-yl]ethoxy]propanamide] |
